The target of one test is hNAMPT protein (Homo sapiens (Human), UniProt P43490). The test can be described thus: NAMPT enzyme assay (TR-FRET/HTRF, BodiPY ligand, anti 6His-Tb). The test is classed as binding. The conditions noted are these: for pIC50: NAMPT IC50 range class, read-out: IC50; for inhibition at 1 µM: read-out: Percent Inhibition. In a few lines:
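TR-FRET binding assay in which His-tagged human NAMPT with anti-6His-Tb is displaced by compound from a BodiPY ligand, incubated 1 h at rt in the dark. Excitation was at 320 nm, with the 520/486 nm emission ratio read. IC50 was fitted from inhibition relative to DMSO controls.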

The test system of another test is PC3 cells. The test can be described thus: PC3 growth inhibition (Cell-titer glo, 72 hours). The conditions noted are these: Homo sapiens, PC-3, PC3 cells, 72 hours, Cell-titer glo, read-out: Percent Inhibition (PC3 growth inhibition); for inhibition at 1 µM: compound concentration 1 μM; for inhibition at 1.667 µM: compound concentration 1.667 μM. The test is classed as cell-based. In a few lines: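 PC3 cells in RPMI1640 seeded overnight at 37 °C, 5% CO2, then exposed to compound diluted in AIM serum-free medium for 72 h. Viability by CellTiter-Glo luminescence vs DMSO controls; single-concentration % remaining viability (1 μM or 1.667 μM), or GI50/LD50 from curves.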

Molecules are shown by their SMILES. pIC50: −log10 of the molar value. Like-named read-outs stand apart in the source and are kept apart here.

hNAMPT protein, sequence (P43490 whole entry): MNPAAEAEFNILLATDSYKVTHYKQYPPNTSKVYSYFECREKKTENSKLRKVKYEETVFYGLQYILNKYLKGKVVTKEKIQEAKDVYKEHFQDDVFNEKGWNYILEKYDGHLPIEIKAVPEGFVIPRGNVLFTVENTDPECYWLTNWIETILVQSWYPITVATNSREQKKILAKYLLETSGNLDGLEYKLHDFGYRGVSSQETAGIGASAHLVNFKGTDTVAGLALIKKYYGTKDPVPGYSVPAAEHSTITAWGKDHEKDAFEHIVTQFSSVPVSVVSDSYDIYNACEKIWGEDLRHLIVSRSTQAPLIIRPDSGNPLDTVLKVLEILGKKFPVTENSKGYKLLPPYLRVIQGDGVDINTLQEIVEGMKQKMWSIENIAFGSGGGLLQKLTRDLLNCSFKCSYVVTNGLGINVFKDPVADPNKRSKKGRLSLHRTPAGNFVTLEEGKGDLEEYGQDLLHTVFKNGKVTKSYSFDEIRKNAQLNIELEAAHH

As to `O=C(NCCn1ccnc1)c1ccc2nc(-c3ccc(F)cc3)c(-c3ccc(F)cc3)nc2c1` [Compound I-270, 2,3-bis(4-fluorophenyl)-N-[2-(1H-imidazol-1-yl)ethyl]quinoxaline-6-carboxamide], the negative logarithm of the IC50 (pIC50) on hNAMPT protein is 5.70 to 6.00. Further, the inhibition at 1 µM at hNAMPT protein (compound concentration 1 μM) is 47%; in the test with PC3 cells it was 111%.

On to `O=C(NCCCn1ccnc1)c1ccc2nc(N3CCC(C4CCNCC4)CC3)c(-c3ccccc3)nc2c1` [Compound I-271, 2-(4,4′-Bipiperidin-1-yl)-N-[3-(1H-imidazol-1-yl)propyl]-3-phenylquinoxaline-6-carboxamide], for which, on hNAMPT protein, the negative-log IC50 (pIC50) was over 7.00. The inhibition at 1 µM at hNAMPT protein was 102%; with PC3 cells, -2%.

`O=C(NCCCn1ccnc1)c1ccc2nc(N3CCC(N4CCNC4=O)CC3)c(-c3ccccc3)nc2c1` [Compound I-272, N-[3-(1H-imidazol-1-yl)propyl]-2-[4-(2-oxoimidazolidin-1-yl)piperidin-1-yl]-3-phenylquinoxaline-6-carboxamide]: the negative logarithm of the IC50 (pIC50) on hNAMPT protein was 6.30 to 7.00. Besides, the inhibition at 1 µM was 72% on hNAMPT protein (compound concentration 1 μM) and -6% in the test with PC3 cells.

Take `O=C(NCCCc1ncc[nH]1)c1ccc2nc(Oc3ccccc3)c(-c3ccc(Cl)cc3)nc2c1` [Compound I-273, 3-(4-Chlorophenyl)-N-[3-(1H-imidazol-2-yl)propyl]-2-phenoxyquinoxaline-6-carboxamide]: at hNAMPT protein, the pIC50 is over 7.00. Moreover, the inhibition at 1 µM on hNAMPT protein (compound concentration 1 μM) was determined as 88%. In the test with PC3 cells, the inhibition at 1.667 µM was 2%.

Consider `O=C(NCCCn1ccnc1)c1ccc2nc(NC3CCC3)c(-c3ccccc3)nc2c1` [Compound I-274, 2-(cyclobutylamino)-N-[3-(1H-imidazol-1-yl)propyl]-3-phenylquinoxaline-6-carboxamide], for which, at hNAMPT protein, the negative-log IC50 (pIC50) was 5.00 to 5.70. The figures for the inhibition at 1 µM on hNAMPT protein (compound concentration 1 μM) and with PC3 cells were 25% and -5%, respectively.

`O=C(NCCCn1ccnc1)c1ccc2nc(N3CCC4(CC3)OCCO4)c(-c3ccccc3)nc2c1` [Compound I-275]: the pIC50 at hNAMPT protein is over 7.00. Also, the inhibition at 1 µM at hNAMPT protein (compound concentration 1 μM) was found to be 99%; with PC3 cells, 0%.

Regarding `Cn1cnc(CCNC(=O)c2ccc3nc(-c4ccc(F)cc4)c(-c4ccc(F)cc4)nc3c2)c1` [Compound I-276, 2,3-bis(4-fluorophenyl)-N-[2-(1-methyl-1H-imidazol-4-yl)ethyl]quinoxaline-6-carboxamide], the pIC50 at hNAMPT protein is 5.70 to 6.00. For the same molecule, the inhibition at 1 µM at hNAMPT protein (compound concentration 1 μM) is 38%; with PC3 cells, 90%.

For the molecule `O=C(NCCCc1ncc[nH]1)c1ccc2nc(N3CCC4(CC3)COC4)c(-c3ccc(F)cc3)nc2c1` [Compound I-277, 3-(4-Fluorophenyl)-N-[3-(1H-imidazol-2-yl)propyl]-2-(2-oxa-7-azaspiro[3.5]non-7-yl)quinoxaline-6-carboxamide], at hNAMPT protein, the pIC50 was over 7.00 and the inhibition at 1 µM amounted to 99%. For the same molecule, the inhibition at 1.667 µM with PC3 cells amounted to 2%.

As for `CCN(CC)c1nc2cc(C(=O)NCCCn3ccnc3)ccc2nc1-c1ccccc1` [Compound I-278, 3-(diethylamino)-N-[3-(1H-imidazol-1-yl)propyl]-2-phenylquinoxaline-6-carboxamide], the negative logarithm of the IC50 (pIC50) at hNAMPT protein is 5.00 to 5.70. For the same molecule, the inhibition at 1 µM worked out at 15% on hNAMPT protein (compound concentration 1 μM) and 98% with PC3 cells.

With `CN(CCn1ccnc1)C(=O)c1ccc2nc(-c3ccc(F)cc3)c(-c3ccc(F)cc3)nc2c1` [Compound I-279, 2,3-bis(4-fluorophenyl)-N-[2-(1H-imidazol-1-yl)ethyl]-N-methylquinoxaline-6-carboxamide], the negative logarithm of the IC50 (pIC50) on hNAMPT protein is 5.00 to 5.70. Besides, the inhibition at 1 µM at hNAMPT protein (compound concentration 1 μM) came out at 13%; in the test on PC3 cells, 89%.

Turning to `O=C(NCCCn1ccnc1)c1ccc2nc(N3CCC(n4c(=O)[nH]c5ccccc54)CC3)c(-c3ccccc3)nc2c1` [Compound I-280, N-[3-(1H-imidazol-1-yl)propyl]-2-[4-(2-oxo-2,3-dihydro-1H-benzimidazol-1-yl)piperidin-1-yl]-3-phenylquinoxaline-6-carboxamide], on hNAMPT protein, the pIC50 was 6.30 to 7.00. For the same molecule, the inhibition at 1 µM at hNAMPT protein (compound concentration 1 μM) was 83%; with PC3 cells, -6%.

The values above are taken from patent US10144742B2 (Millennium Pharmaceuticals, Inc., priority 2014, dated 2018).
